This note sets out measurements from patent US11608313B2, “Adamantylmethylamine derivative and use thereof as pharmaceutical” (TOHOKU UNIVERSITY, priority 2017, dated 2023).

What all share (assay type): in vivo
In assay [1] the test system is APP23 mice. The assay can be described thus: Y-maze test in APP23 mice. To be noted: 1 mg/kg orally once a day for two months. As to the method: FIGS. 4-1 to 4-4 show the results of behavioral analyses. FIGS. 4-1 and 4-2 show the results of analysis of attentional function in wild-type mice (C57BL/6J, Japan SLC) v.s. APP23 mice (n=5 per group) by conventional Y-maze test. […] In the Y-maze test, mice are allowed to freely walk between three arms for 8 minutes. Here, the different arms are designated as A, B and C. A mouse positioned in arm A can move to arm B or C. If the mouse moves to arm B, then the mouse may move to arm C. Such a mouse moving sequentially between arms A, B and C is regarded as a mouse giving correct answer. […] The arms to which a mouse move are recorded in the order they are chosen by the mouse, and the number of times that a mouse moves between three arms within a specified time is counted and regarded as “total arm entries”. Further, the number of correct-answers (the number of times that a mouse moving sequentially between three different arms) is counted and regarded as the number of alternation behaviors (“No. of alternations”). The percentage of “No. of alternations” relative to the number obtained by subtracting 2 from “total arm entries” is expressed as percent alternation (%) which serves as an index for normal alternation behavior (correct answer rate in spatial working memory). […]

For assay [2], the system named is APP23 mice. The assay can be described thus: Fear conditioning test in APP23 mice. To be noted: treated for two months. From the text:
The fear conditioning test is an analysis method that takes advantage of the characteristic preference of mice for a dark place over a bright place. On day 1, a mouse is placed in a bright place. The mouse, which prefers darkness, enters a dark place (dark box), but then electrical simulation is delivered to the mouse. The mouse is surprised, returns to the bright place, and never enters the dark place. On day 2, the mouse is placed again in the bright place (the same place as on day 1) and observed for 5 minutes to see whether the mouse enters a dark place. If the mouse immediately enters the dark place, it is determined that the mouse experiences a decline in fear memory. “Latency” refers to the number of seconds until the mouse placed in the bright place on day 2 enters a dark place.

The subject of assay [3] is olfactory bulbectomized mice (OBX mice). Nature of the assay: Cognitive function in olfactory bulbectomized mice (Y-maze, novel object recognition and other tests). To be noted: chronic oral treatment for 2 weeks. As to the method: The same experiment as in Test Example 4 was carried out using olfactory bulbectomized mice (OBX mice) as a neurodegenerative disease model. […] The OBX mice were prepared from 10-week-old DDY male mice (Nippon SLC, Hamamatsu, Japan). Olfactory bulbectomy surgery was carried out under anesthesia with pentobarbital sodium (50 mg/kg i.p.; Dainippon, Osaka, Japan). The mice were fixed on a stereotaxic apparatus to drill a 1 mm diameter hole in the skull above the olfactory bulb. The olfactory bulb was aspirated without causing damage to the prefrontal cortex. A sham group was prepared by the same procedure as that for the OBX group, without aspiration of olfactory bulb. One week was allowed for recovery from surgery, and behavioral analyses were performed on the day following the treatment with the test compound for 14 days (2 weeks).
The same model mice as described above were orally treated with a single dose of each of the test compounds (1 mg/kg), and analyzed after 1 hour by Y-maze test and novel object recognition test. The results are shown in FIGS. 22-3 and 22-4 (Y-maze test), and FIG. 22-5 (novel object recognition test).

A further assay concerns amyloid-β (Aβ). The assay can be described thus: Aβ aggregation in brain slices of APP23 mice (6E10 and thioflavin staining). To be noted: APP23 mice 14 month-old, chronic oral treatment for 2 months, 1 mg/kg. How it is done: The amyloid-β (Aβ) hypothesis regarding the pathogenesis of Alzheimer's disease has still been of great importance. It has been confirmed by immunostaining that Aβ aggregation occurs in APP23 mice (14 month-old). 50 μm brain slices were prepared from each of WT (control) and APP23 mice, and stained with 6E10 (anti-Aβ antibody, produced by Abcam) and thioflavin. The other conditions were in line with conventional immunostaining methods. […] Aβ aggregation was suppressed by chronic treatment with TP-014 (chronic oral treatment for 2 months (1 mg/kg)).

The test system of a further assay is OBX mice. The assay can be described thus: Tail-suspension test and forced swim test in OBX mice (depression model). To be noted: chronic oral treatment for 2 weeks, 1 mg/kg. How it is done:
OBX mice were used as a depression model to determine the effect of TP-014 (chronic oral treatment for 2 weeks (1 mg/kg)) to ameliorate a depression-like symptom. OBX mice are reported to show a decline in cognitive function, but have originally been established as a depression model. Depression analysis was done by tail-suspension test and forced swim test. In the tail-suspension test, mice are hung upside-down by their tail. If the hung mice are affected by depression, they show a longer immobility time. The immobility time of normal mice is shorter since they move actively when hung. In the forced swim test, mice are forced to swim in a beaker filled with water. Depression mice neither swim nor move (just float). The time (immobility time(s)) for which mice stay still in such a way is measured.
The same model mice were orally treated with a single dose of each of the test compounds (1 mg/kg), and analyzed after 1 hour by tail-suspension test and forced swim test. The results are shown in FIGS. 22-1 (tail-suspension test) and 22-2 (forced swim test).

Assay [4] relates to Kir6.1-deficient mice (heterozygous). The assay can be described thus: Tail-suspension test and forced swim test in Kir6.1-deficient mice. To be noted: chronic oral treatment for 2 weeks, 1 mg/kg. From the text:
Kir6.1-deficient mice (heterozygous, n=5 per group) were used to measure immobility time by tail-suspension test (FIG. 12-1) and forced swim test (FIG. 12-2) according to the same procedure as in Test Example 11. The heterozygous mice are those with half expression of Kir6.1 channels, unlike homozygous mice (complete Kir6.1-deficient mice) (homozygous mice die of arrhythmia after birth). […] The Kir6.1-deficient mice were obtained from Professor Susumu Seino, School of Medicine of Kobe University (Mild T., et al., Nature Medicine, 2002, 8, 466-472).

In another assay the test system is CaMKIV-deficient mice. Nature of the assay: Tail-suspension test and forced swim test in CaMKIV-deficient mice. To be noted: chronic oral treatment for 2 weeks, 1 mg/kg. How it is done:
By following the same procedure as in Test Example 12, CaMKIV-deficient mice (n=5*per group) were analyzed for CaMKIV induced by Kir6.1 channels.
The CaMKIV-deficient mice were obtained from professor Hiroyuki Sakagami, Kitasato University School of Medicine (Takao K., et al., PLoS One 2010, 5, e9460).

The subject of another assay is ob/ob mice. Nature of the assay: Blood glucose levels in ob/ob mice. To be noted: chronic treatment 1 mg/kg for 4 weeks, on and after week 3. As to the method: In order to determine the hypoglycemic effect of TP-014, ob/ob mice were measured for blood glucose levels using an assay kit (produced by Technicon International Inc.). The measurement was taken for 4 weeks, and chronic treatment with TP-014 (1 mg/kg) was continued for 4 weeks. […] Tolbutamide was used as a control drug. Kir6.2 channels bind to SUR1 ([…]) on the cell membrane to form channels. The mechanism of action is considered to be inhibition of Kir6.2 channels. Tolbutamide inhibits Kir6.2 channels by binding to SUR1.

`O=C(N[C@@H](c1ccccc1)[C@H]1[C@H]2C[C@@H]3C[C@](Cl)(C2)C[C@@]1(OC(=O)C(F)(F)F)C3)C(F)(F)F` [TP-014, (1S,2R,3S,5S,7S)-5-chloro-2-((R)-phenyl(2,2,2-trifluoroacetamido)methyl)adamantan-1-yl 2,2,2-trifluoroacetate]: in the assay with APP23 mice [1], the “attentional function (Y-maze test, percent alternation)” value is listed as “significantly enhanced”. Moreover, the “fear memory (latency, fear conditioning test)” value with APP23 mice [2] is “improvement in fear memory”. Moreover, in assay [3], the cognitive function impairment entry is reported as “significantly improved”. For the same compound, the Aβ aggregation result in the assay on amyloid-β (Aβ) is reported as “suppressed”. The “immobility time (tail-suspension test and forced swim test)” value in the assay on OBX mice is reported as “improved”. In addition, the “depression-like symptom (immobility time)” value in assay [4] is reported as “no effect”. Also, the “depression-like symptom (increased immobility time)” value with CaMKIV-deficient mice is reported as “no effect”. Also, the blood glucose levels entry in the assay on ob/ob mice is “significantly decreased”.
